Test results: paper PMC5898707, “Piperazinyl fragment improves anticancer activity of Triapine” (PLoS ONE, 2018)
Read-outs that look alike come from different tables or passages of the source.

Tests used:
HCT116 p53^+/+ = experiment: Cytotoxicity MTS assay, 72 h; format: cell-based, human; conditions: for IC50: Homo sapiens, HCT-116, HCT116 p53^+/+, 72 h, MTS
Text: (§1) The human colon carcinoma cell line HCT116 wild type (p53^+/+), human breast carcinoma cell line MCF-7 and glioblastoma cell line Hs683 were obtained from ATCC. The glioma cell line U-251 was purchased from Sigma Aldrich and the normal human fibroblast cell lines NHDF from PromoCell. The human colon cancer cell line HCT116 with a p53 deletion (p53^-/-) was kindly provided by Prof. M. Rusin from the Maria Sklodowska-Curie Memorial Cancer Centre and Institute of Oncology in Gliwice, Poland. Cells were grown as monolayer cultures in Dulbecco’s modified Eagle’s medium with an antibiotic gentamicin (200 μL/100 mL medium) in 75 cm^2 flasks (Nunc). DMEM for HCT116, MCF-7, U-251, Hs683 were supplemented with 12% heat-inactivated fetal bovine serum (Sigma) and for NHDF with 15% non-inactivated fetal bovine serum (Sigma). All the cell lines were cultured under standard conditions at 37°C in a humidified atmosphere at 5% CO2.
(§2) The cells were seeded in 96-well plates (Nunc) at a density of 5,000 cells/well (HCT116, MCF-7, U-251, Hs683) and 4,000 cells/well (NHDF) and incubated at 37°C for 24 h. The assay was performed following a 72 h incubation with varying concentrations of the compounds that were tested. Then, 20 μL of The CellTiter 96®AQueous One Solution-MTS (Promega) solution was added to each well (with 100 μL DMEM without phenol red) and incubated for 1 h at 37°C. The optical densities of the samples were analyzed at 490 nm using a multi-plate reader (Synergy 4, Bio Tek). Results were expressed as a percentage of the control and calculated as the inhibitory concentration (IC50) values using GraphPad Prism 5. The IC50 parameter was defined as the compound concentration that was necessary to reduce the proliferation of cells to 50% of the untreated control. Each individual compound was tested in triplicate in a single experiment with each experiment being repeated four to five times.

HCT116 p53^-/- = experiment: Cytotoxicity MTS assay, 72 h; format: cell-based, human; conditions: for IC50: Homo sapiens, HCT-116, HCT116 p53^-/-, 72 h, MTS
Text: as §1, §2

Hs683 = experiment: Cytotoxicity MTS assay, 72 h; format: cell-based, human; conditions: for IC50: Homo sapiens, Hs 683, Hs683, 72 h, MTS
Text: as §1, §2

MCF-7 = experiment: Cytotoxicity MTS assay, 72 h; format: cell-based, human; conditions: for IC50: Homo sapiens, MCF7, MCF-7, 72 h, MTS
Text: as §1, §2

U-251 = experiment: Cytotoxicity MTS assay, 72 h; format: cell-based, human; conditions: for IC50: Homo sapiens, U-251, 72 h, MTS
Text: as §1, §2

NHDF = experiment: Cytotoxicity MTS assay, 72 h; format: cell-based; conditions: Homo sapiens, NHDF normal fibroblasts
Text: as §1, §2

[1] = Protonation constants by pH-dependent UV-visible spectrophotometric titration; format: physicochemical; conditions: MeOH/H2O 80/20 by weight, I = 0.1 M KCl, T = 25.0°C
Experimental: Spectrophotometric titrations were performed in order to probe the acid-based equilibria that were associated with each ligand and to determine the pH range over which the chelator was in its charge neutral form. This property is important in understanding the passage of a molecule through the cell membranes, as charged chelators have poor access. These studies were performed in an 80% (w/w) MeOH/H2O solvent mixture due to the low solubility of these compounds in pure water. The fully protonated forms of the ligands have four L^1-L^7 or five L^8-L^12 dissociable protons, respectively. […] An additional proton in L^8-L^12 derives from the additional pyridine, pyrimidine or pyrazine ring, respectively; however, not all of them could be determined under these experimental conditions. The protonation constants that were obtained are given in Table 1 and the species distribution diagram of the protonated species of the selected ligand is presented in Fig 3.
To determine the acid-base properties of the studied ligands, UV-visible spectrophotometric experiments as a function of p[H] were carried out in the pH range 2–11.
UV-Visible titrations were also carried out. The absorption spectra (200–800 nm) were recorded using a Jasco V630 spectrophotometer. The initial pH of 3.2 mL ligand samples was adjusted to be acidic or basic and the titration of the solution was then carried out by adding known volumes of NaOH or HCl, respectively. The spectrophotometric data were fitted using the HypSpec program. Distribution diagrams of the species were calculated using Hyperquad Simulation and Speciation (HySS) software.

HCT116 p53^+/+ cells = experiment: Western blot of cell cycle and cell death proteins; format: cell-based, human; conditions: 24 h, L^9 at four-fold IC50
Experimental: (§3) The HCT116 (p53^+/+), U-251 and MCF-7 cells were seeded in 3 cm Petri dishes (Nunc) at a density of 0.5·10^6 cells/well and incubated overnight. […] Cells were harvested by trypsinization, washed with cold PBS and cell pellets were obtained by centrifugation at 2,000 rpm. Total cell lysates were obtained by dissolving the cell pellets in 150 μL of a RIPA buffer (Thermo Scientific) containing a Halt Protease Inhibitor Cocktail (Thermo Scientific) or Halt Phosphatase Inhibitor Cocktail (Thermo Scientific) along with 0.5 M EDTA and lysed for 20 min on ice on a rocking plate. The lysates were then sonicated, centrifuged at 10,000 rpm for 10 min at 4°C and the supernatants were collected for further analysis. The protein concentration was determined using a Micro BCA™ Protein Assay Kit (Thermo Scientific) according to the manufacturer’s instructions. Equal amounts of proteins (15 μg) were electrophoresed on SDS-Page gels and transferred onto a nitrocellulose membranes. The membranes were blocked in 5% non-fat milk prepared in PBS containing 0.1% Tween-20 (TPBS) for 1 h. After blocking, the membranes were incubated with specific primary antibodies: PARP, p53, p21^Waf1/Cip1, cdc2, cyclin E, cytochrome c, caspase-3,8,9 and GAPPH overnight at 4°C, then washed and incubated with horseradish peroxidase (HRP)-conjugated secondary antibodies for 1 h at room temperature. All the antibodies were purchased from Cell Signaling and were diluted 1:1000 in 5% milk in TPBS. Finally, the membranes were washed and incubated with a SuperSignal™ West Pico Chemiluminescent Substrate (Thermo Scientific). The chemiluminescence signals were captured using a ChemiDoc™ XRS+ System (BioRad). The experiments were performed at least three times.

MCF-7 cells = experiment: Western blot of cell cycle and cell death proteins; format: cell-based, human; conditions: 24 h, L^9 at four-fold IC50
Experimental: as §3

U-251 cells = experiment: Western blot of cell cycle and cell death proteins; format: cell-based, human; conditions: 24 h
Experimental: as §3

[2] = cited from earlier work

Work on `Nc1cccnc1C=NNC(=S)N1CCN(c2ccccn2)CC1` [L^8, N’-[(3-aminopyridin-2-yl)methylidene]-4-(pyridin-2-yl)piperazine-1-carbothiohydrazide] yielded an IC50 (HCT116 p53^+/+) of 1900 ± 292 nM, an IC50 (HCT116 p53^-/-) of 139 ± 20 nM and an IC50 (Hs683) of 1160 ± 307 nM. It also gave an IC50 (MCF-7) of 1120 ± 113 nM, an IC50 (U-251) of 1070 ± 280 nM and an IC50 (NHDF) of over 25000 nM. It also gave a melting point of 210 to 211 °C.
For `Nc1cccnc1C=NNC(=S)N1CCN(c2ccc(C(F)(F)F)cn2)CC1` [L^9, N’-[(3-aminopyridin-2-yl)methylidene]-4-[5-(trifluoromethyl)pyridin-2-yl]piperazine-1-carbothiohydrazide], the IC50 (HCT116 p53^+/+) was 422 ± 113 nM, the IC50 (HCT116 p53^-/-) was 123 ± 61 nM and the IC50 (Hs683) was 844 ± 238 nM. The IC50 (MCF-7) was 204 ± 24 nM, the IC50 (U-251) was 277 ± 58 nM and the IC50 (NHDF) was over 25000 nM.
With `Nc1cccnc1C=NNC(=S)N1CCN(c2ncc(C(F)(F)F)cc2Cl)CC1` [L^10, N’-[(3-aminopyridin-2-yl)methylidene]-4-[3-chloro-5-(trifluoromethyl)pyridin-2-yl]piperazine-1-carbothiohydrazide] the IC50 (HCT116 p53^+/+) was 170 ± 15 nM, the IC50 (HCT116 p53^-/-) was 159 ± 11 nM and the IC50 (Hs683) was 195 ± 21 nM. It also gave an IC50 (MCF-7) of 258 ± 40 nM, an IC50 (U-251) of 137 ± 16 nM and an IC50 (NHDF) of over 25000 nM. It also gave a melting point of 199 to 200 °C.
In the case of `Nc1cccnc1C=NNC(=S)N1CCN(c2ncccn2)CC1` [L^11, N’-[(3-aminopyridin-2-yl)methylidene]-4-(pyrimidin-2-yl)piperazine-1-carbothiohydrazide], the IC50 (HCT116 p53^+/+) is reported as 668 ± 45 nM, the IC50 (HCT116 p53^-/-) is reported as 650 ± 55 nM and the IC50 (Hs683) is reported as 2840 ± 581 nM. It also gave an IC50 (MCF-7) of 1730 ± 388 nM, an IC50 (U-251) of 1270 ± 374 nM and an IC50 (NHDF) of over 25000 nM. For the same compound, the melting point was 198 to 199 °C.
Compound `Nc1cccnc1C=NNC(=S)N1CCN(c2cnccn2)CC1` [L^12, N’-[(3-aminopyridin-2-yl)methylidene]-4-(pyrazin-2-yl)piperazine-1-carbothiohydrazide] has an IC50 (HCT116 p53^+/+) of 435 ± 108 nM, an IC50 (HCT116 p53^-/-) of 342 ± 42 nM and an IC50 (Hs683) of 2600 ± 237 nM. The IC50 (MCF-7) was 2220 ± 638 nM, the IC50 (U-251) was 743 ± 109 nM and the IC50 (NHDF) was over 25000 nM. It also gave a melting point of 217 to 218 °C.
In the case of `NC(=S)NN=Cc1ncccc1N` [Triapine, 3-aminopyridine-2-carboxaldehyde thiosemicarbazone], the logK1 [1] is reported as 10.64, the logK2 [1] is reported as 3.48 and the logβ1H ([1]; error 1σ) is reported as 10.64 (1). For the same compound, the logβ2H ([1]; error 1σ) was 14.12 (1), the “Therapeutic index (TI) NHDF vs. HCT116 p53^+/+” value (HCT116 p53^+/+) was over 22 and the IC50 (HCT116 p53^+/+) was 1120 ± 277 nM. The “Therapeutic index (TI) NHDF vs. HCT116 p53^-/-” value (HCT116 p53^-/-) was over 19, the IC50 (HCT116 p53^-/-) was 1340 ± 338 nM and the “Therapeutic index (TI) NHDF vs. Hs683” value (Hs683) was over 14. For the same compound, the IC50 (Hs683) was 1760 ± 292 nM, the “Therapeutic index (TI) NHDF vs. MCF-7” value (MCF-7) was over 11 and the IC50 (MCF-7) was 2330 ± 431 nM. For the same compound, the “Therapeutic index (TI) NHDF vs. U-251” value (U-251) was over 17, the IC50 (U-251) was 1480 ± 558 nM and the IC50 (NHDF) was over 25000 nM. For the same compound, the cytochrome c (HCT116 p53^+/+ cells) was “release of cytochrome c”, the “expression of cyclin E” value (HCT116 p53^+/+ cells) was “overexpression” and the cytochrome c (MCF-7 cells) was “release of cytochrome c”. The “expression of cdc2” value (MCF-7 cells) was “much stronger”, the “expression of cyclin E” value (MCF-7 cells) was “overexpression” and the cytochrome c (U-251 cells; U-251) was “release of cytochrome c”. For the same compound, the “expression of cyclin E” value (U-251 cells; U-251, L^9 at four-fold IC50) was “overexpression”, the PARP cleavage (U-251 cells; glioma cell (U-251)) was “PARP cleavage” and the logK1 ([2]; literature value) was 10.86. For the same compound, the logK2 ([2]; literature value) was 3.79, the logβ1H ([2]; literature value) was 10.86 (1)^[[45]^] and the logβ2H ([2]; literature value) was 14.65 (1)^[[45]^].
In the case of `c1ccncc1` [pyridine], the logK ([2]; tabulated value) is given as 5.23.
